What was measured:
Format in all cases: in vivo
[1] = test system: pigweed, palmer (palmer pigweed, Amaranthus palmeri); experiment: Test C preemergence, plant response rating
[2] = test system: wild poinsettia (Euphorbia heterophylla); experiment: Test C preemergence, plant response rating
[3] = test system: barnyardgrass (Echinochloa crus-galli); experiment: Test C preemergence, plant response rating; conditions: Preemergence
[4] = test system: oat, wild (wild oat Avena fatua); experiment: Test C preemergence, plant response rating
[5] = test system: nightshade (eastern black nightshade, Solanum ptycanthum); experiment: Test C preemergence, plant response rating
[6] = test system: windgrass (Apera spica-venti); experiment: Test C postemergence, plant response rating
Summary of the method: (§1)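 Pre-emergence: seeds sown in loam soil–sand blend or silt loam and sprayed with test chemicals in a non-phytotoxic solvent mixture with surfactant. Post-emergence: plants 2 to 18 cm (1- to 4-leaf stage) in peat-based potting medium, same formulation. Greenhouse 13 to 15 d; visual rating 0 (no effect) to 100 (complete control) versus controls.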

[7] = test system: buckwheat, wild (wild buckwheat, Polygonum convolvulus); experiment: Test C postemergence, plant response rating; conditions: for Buckwheat, Wild plant response rating: scale 0 to 100 (0 no effect, 100 complete control)
Summary of the method: as §1

[8] = test system: wild mustard (Sinapis arvensis); experiment: Test C postemergence, plant response rating
Summary of the method: as §1

[9] = test system: speedwell (bird's-eye speedwell, Veronica persica); experiment: Test C postemergence, plant response rating; conditions: for Speedwell plant response rating: scale 0 to 100 (0 no effect, 100 complete control)
Summary of the method: as §1

[10] = test system: field violet (Viola arvensis); experiment: Test C postemergence, plant response rating; conditions: for Field Violet plant response rating: scale 0 to 100 (0 no effect, 100 complete control)
Summary of the method: as §1

[11] = test system: nightshade (eastern black nightshade, Solanum ptycanthum); experiment: Test C postemergence, plant response rating; conditions: for Nightshade plant response rating: scale 0 to 100 (0 no effect, 100 complete control)
Summary of the method: as §1

[12] = test system: field poppy (Papaver rhoeas); experiment: Test C postemergence, plant response rating; conditions: for Field Poppy plant response rating: scale 0 to 100 (0 no effect, 100 complete control)
Summary of the method: as §1

[13] = test system: geranium, cutleaf (cutleaf geranium, Geranium dissectum); experiment: Test C postemergence, plant response rating; conditions: for Geranium, Cutleaf plant response rating: scale 0 to 100 (0 no effect, 100 complete control)
Summary of the method: as §1

[14] = test system: pigweed, palmer (palmer pigweed, Amaranthus palmeri); experiment: Test C postemergence, plant response rating; conditions: for Pigweed, Palmer plant response rating: scale 0 to 100 (0 no effect, 100 complete control)
Summary of the method: as §1

[15] = test system: Canada thistle (Cirsium arvense); experiment: Test C postemergence, plant response rating; conditions: for Canada Thistle plant response rating: scale 0 to 100 (0 no effect, 100 complete control)
Summary of the method: as §1

[16] = test system: galium (catchweed bedstraw, Galium aparine); experiment: Test C preemergence, plant response rating
[17] = test system: windgrass (Apera spica-venti); experiment: Test C preemergence, plant response rating
[18] = test system: surinam grass (Brachiaria decumbens); experiment: Test C preemergence, plant response rating
[19] = test system: johnsongrass (Sorghum halepense); experiment: Test C preemergence, plant response rating

FC(F)(F)CCCc1c(Br)cccc1Oc1ncc(Cl)cn1 [Compound 89]
Plant response rating, Pigweed, Palmer ([1]; 31 g ai/ha, scale 0 to 100): 70
Plant response rating, Pigweed, Palmer ([1]; 62 g ai/ha, scale 0 to 100): 90
Plant response rating, Pigweed, Palmer ([1]; 125 g ai/ha, scale of 0 to 100): 98
Plant response rating, Poinsettia, Wild ([2]; 31 g ai/ha, scale 0 to 100): 0
Plant response rating, Poinsettia, Wild ([2]; 62 g ai/ha, scale 0 to 100): 20
Plant response rating, Poinsettia, Wild ([2]; 125 g ai/ha, scale of 0 to 100): 40
Plant response rating, Barnyardgrass ([3]; 125 g ai/ha, scale of 0 to 100): 100
Plant response rating, Barnyardgrass ([3]; 16 g ai/ha, scale 0 to 100): 5
Plant response rating, Barnyardgrass ([3]; 31 g ai/ha, scale 0 to 100): 35
Plant response rating, Barnyardgrass ([3]; 62 g ai/ha, scale 0 to 100): 90
Plant response rating, Oat, Wild ([4]; 31 g ai/ha, scale 0 to 100): 10
Plant response rating, Oat, Wild ([4]; 62 g ai/ha, scale 0 to 100): 30
Plant response rating, Oat, Wild ([4]; 125 g ai/ha, scale of 0 to 100): 10
Plant response rating, Nightshade ([5]; 31 g ai/ha, scale 0 to 100): 75
Plant response rating, Nightshade ([5]; 62 g ai/ha, scale 0 to 100): 65
Plant response rating, Nightshade ([5]; 125 g ai/ha, scale of 0 to 100): 85
Plant response rating, Windgrass ([6]; 16 g ai/ha, scale of 0 to 100): 10
Plant response rating, Windgrass ([6]; 31 g ai/ha, scale 0 to 100): 10
Windgrass plant response rating ([6]; 125 g ai/ha, scale 0 to 100 (0 no effect, 100 complete control)): 35
Plant response rating, Buckwheat, Wild ([7]; 16 g ai/ha, scale of 0 to 100): 70
Plant response rating, Buckwheat, Wild ([7]; 31 g ai/ha, scale 0 to 100): 75
Buckwheat, Wild plant response rating ([7]; 62 g ai/ha): 75
Buckwheat, Wild plant response rating ([7]; 125 g ai/ha): 85
Plant response rating, Mustard, Wild ([8]; 16 g ai/ha, scale of 0 to 100): 100
Mustard, Wild plant response rating ([8]; 62 g ai/ha, scale 0 to 100 (0 no effect, 100 complete control)): 100
Plant response rating, Speedwell ([9]; 16 g ai/ha, scale of 0 to 100): 95
Plant response rating, Speedwell ([9]; 31 g ai/ha, scale 0 to 100): 100
Speedwell plant response rating ([9]; 62 g ai/ha): 100
Speedwell plant response rating ([9]; 125 g ai/ha): 100
Plant response rating, Field Violet ([10]; 16 g ai/ha, scale of 0 to 100): 100
Plant response rating, Field Violet ([10]; 31 g ai/ha, scale 0 to 100): 100
Field Violet plant response rating ([10]; 62 g ai/ha): 100
Field Violet plant response rating ([10]; 125 g ai/ha): 100
Plant response rating, Nightshade ([11]; 16 g ai/ha, scale of 0 to 100): 75
Plant response rating, Nightshade ([11]; 31 g ai/ha, scale 0 to 100): 90
Nightshade plant response rating ([11]; 62 g ai/ha): 95
Nightshade plant response rating ([11]; 125 g ai/ha): 95
Plant response rating, Field Poppy ([12]; 16 g ai/ha, scale of 0 to 100): 90
Plant response rating, Field Poppy ([12]; 31 g ai/ha, scale 0 to 100): 95
Field Poppy plant response rating ([12]; 62 g ai/ha): 100
Field Poppy plant response rating ([12]; 125 g ai/ha): 100
Plant response rating, Geranium, Cutleaf ([13]; 16 g ai/ha, scale of 0 to 100): 35
Plant response rating, Geranium, Cutleaf ([13]; 31 g ai/ha, scale 0 to 100): 35
Geranium, Cutleaf plant response rating ([13]; 62 g ai/ha): 50
Geranium, Cutleaf plant response rating ([13]; 125 g ai/ha): 55
Plant response rating, Pigweed, Palmer ([14]; 16 g ai/ha, scale of 0 to 100): 55
Plant response rating, Pigweed, Palmer ([14]; 31 g ai/ha, scale 0 to 100): 75
Pigweed, Palmer plant response rating ([14]; 62 g ai/ha): 80
Pigweed, Palmer plant response rating ([14]; 125 g ai/ha): 85
Plant response rating, Canada Thistle ([15]; 16 g ai/ha, scale of 0 to 100): 80
Plant response rating, Canada Thistle ([15]; 31 g ai/ha, scale 0 to 100): 80
Canada Thistle plant response rating ([15]; 62 g ai/ha): 85
Canada Thistle plant response rating ([15]; 125 g ai/ha): 85
Plant response rating, Galium ([16]; 31 g ai/ha, scale 0 to 100): 0
Plant response rating, Galium ([16]; 62 g ai/ha, scale 0 to 100): 0
Plant response rating, Galium ([16]; 125 g ai/ha, scale of 0 to 100): 0
Plant response rating, Windgrass ([17]; 31 g ai/ha, scale 0 to 100): 50
Plant response rating, Windgrass ([17]; 62 g ai/ha, scale 0 to 100): 65
Plant response rating, Windgrass ([17]; 125 g ai/ha, scale of 0 to 100): 100
Plant response rating, Surinam Grass ([18]; 31 g ai/ha, scale 0 to 100): 35
Plant response rating, Surinam Grass ([18]; 62 g ai/ha, scale 0 to 100): 65
Plant response rating, Surinam Grass ([18]; 125 g ai/ha, scale of 0 to 100): 75
Plant response rating, Johnsongrass ([19]; 31 g ai/ha, scale 0 to 100): 40
Plant response rating, Johnsongrass ([19]; 62 g ai/ha, scale 0 to 100): 30
Plant response rating, Johnsongrass ([19]; 125 g ai/ha, scale of 0 to 100): 60

Source: patent publication US11053204B2, “Pyrimidinyloxy benzene derivatives as herbicides” (FMC Corporation, priority 2015, dated 2021)
